Publication PMC7449217, “The FDA-Approved Drug Nelfinavir Inhibits Lytic Cell-Free but Not Cell-Associated Nonlytic Transmission of Human Adenovirus” (Antimicrobial Agents and Chemotherapy, 2020)
Structures can show the parent of a compound that is named as a salt.

What was measured:
Type in all cases: cell-based, human adenovirus
HAdV-A31 = experiment: fluorescence-based plaque-forming assay, A549 cells
Method: (§1) Per 96-well plate, 15,000 A549 cells, 10,000 HeLa cells, 30,000 HBECs, 30,000 HCE cells, or 30,000 CMT-93 cells were seeded in 100 μl of the respective supplemented medium and allowed to settle for 1 h at room temperature (RT) prior to cell culture incubation at 37°C with 5% CO2 and 95% humidity. The following day, the medium was replaced with 50 μl of the respective virus stock dilution giving rise to 5 to 50 plaques per 96-well plate. Fifty microliters of nelfinavir to obtain a 0.1 to 50 μM final concentration or the DMSO solvent control was also added, both in supplemented medium. For each experiment, a noninfected, treated control was performed. For uphill plaque assays, the medium volume was increased to 150 μl with identical virus and drug concentrations. For wash-in/washout experiments, the virus was incubated on cells in supplemented medium for 1 h at 37°C, cells were washed with PBS, and a 100-μl drug dilution in supplemented medium was added. All experiments were performed in four technical replicates or as indicated. Cells were incubated under standard cell culture conditions. At the indicated times postinfection, the cells were fixed, and the nuclei were stained for 1 h at RT by the addition of 33 μl 16% (wt/vol) paraformaldehyde (PFA) and 4 μg/ml Hoechst 33342 (Sigma-Aldrich, St. Louis, MO, USA) in PBS. Cells were washed three times with PBS and stored in PBS supplemented with 0.02% N3 for infections with viruses harboring a GFP transgene. For wild-type (wt) viruses, cells were quenched in PBS supplemented with 50 mM NH4Cl, permeabilized using 0.2% (vol/vol) Triton X-100 in PBS, and blocked with 0.5% (wt/vol) bovine serum albumin (BSA) in PBS. Cells were incubated with 381.7 ng/ml mouse anti-HAdV hexon protein antibody (Mab8052; Sigma-Aldrich, St. Louis, MO, USA) and subsequently stained using 2 μg/ml goat anti-mouse-Alexa Fluor 594 (catalog number A21203 or A32742; Thermo Fisher Scientific, Waltham, MA, USA). Plates were imaged on either an IXM-XL or an IXM-C automated high-throughput fluorescence microscope (Molecular Devices, San Jose, CA, USA) using a 4× objective in wide-field mode. Hoechst staining was recorded in the 4′,6-diamidino-2-phenylindole (DAPI) channel, the fluorescein isothiocyanate (FITC)/GFP channel was acquired for viral GFP, and the tetramethyl rhodamine isothiocyanate (TRITC)/Texas Red channel was acquired for hexon immunofluorescence staining.
(§2) The infection phenotype for each well was quantified using Plaque2.0 ([101]). The number of plaques was determined based on the infection signal (viral GFP or hexon immunofluorescence staining). Nuclei stained with Hoechst were segmented by using CellProfiler ([178]). Infected nuclei were classified based on the median infection signal per nucleus in CellProfiler. Data were plotted, and the EC50 (infected and treated cells), the TC50 (noninfected, treated cells), as well as the corresponding standard errors (SE) were determined using curve fitting in GraphPad (version 8.1.2; GraphPad Software, Inc.) using three-parameter inhibitor concentration-versus-response nonlinear regression. The mean TI50 was calculated as the […] ratio of the means. The TI50 SE was calculated by error propagation.

HAdV-B11 = experiment: as above; details: for TI50 (TC50/IC50): HAdV-B11 in A549, 3 dpi, Hexon
Method: as §1, §2

HAdV-B14a = experiment: as above
Method: as §1, §2

HAdV-B14 = experiment: as above
Method: as §1, §2

HAdV-B16 = experiment: as above
Method: as §1, §2

HAdV-B3-pIX-FS2A-GFP = experiment: as above
Method: as §1, §2

HAdV-B34 = experiment: as above
Method: as §1, §2

HAdV-B7 = experiment: as above; details: for TI50 (TC50/IC50): HAdV-B7 in A549, 4 dpi, Hexon
Method: as §1, §2

HAdV-C2-dE3B-GFP-dADP = experiment: as above; details: for EC50: Human adenovirus sp., plaque numbers
Method: as §1, §2

HAdV-C5 = experiment: as above
Method: as §1, §2

HAdV-D30 = experiment: as above
Method: as §1, §2

HAdV-D8 = experiment: as above
Method: as §1, §2

rec700 (HAdV-C5/2) = experiment: as above
Method: as §1, §2

HAdV-C2-dE3B-GFP = experiment: quantification of viral protein expression (CMV-GFP, hexon) in infected A549 cells; details: 46 hpi, at the tested concentrations
Method: Infection, HAdV hexon immunofluorescence staining, and imaging were performed in technical quadruplicates, as described above for the microscopic plaque assay. Single nuclei (Hoechst) were segmented using CellProfiler ([178]). Median GFP and hexon signals per nucleus were measured, and infected nuclei were classified using the median GFP or hexon signal per nucleus. Subsequently, the mean and standard deviation (SD) over all infected nuclei per well were calculated using R version 3.3.2 ([179]). Data were plotted using GraphPad (version 8.1.2; GraphPad Software, Inc.).

Structure (SMILES): Cc1c(O)cccc1C(=O)N[C@@H](CSc1ccccc1)[C@H](O)CN1C[C@H]2CCCC[C@H]2C[C@H]1C(=O)NC(C)(C)C [Nelfinavir, Nelfinavir mesylate]
- TI50 (TC50/IC50) (HAdV-A31; HAdV-A31 in A549, 6 dpi, Hexon): 1.35
- EC50 (HAdV-A31; Human adenovirus sp., HAdV-A31 in A549, fixation 6 dpi, read-out Hexon, plaque numbers): 14.1 µM
- TI50 (TC50/IC50) (HAdV-B11): 0.53
- TI50 (TC50/IC50) (HAdV-B11; listed as nelfinavir): < 1
- EC50 (HAdV-B11; Human adenovirus sp., HAdV-B11 in A549, fixation 3 dpi, read-out Hexon, plaque numbers): 28.9 µM
- TI50 (TC50/IC50) (HAdV-B14a; HAdV-B14a in A549, 3 dpi, Hexon): 38.22
- EC50 (HAdV-B14a; Human adenovirus sp., HAdV-B14a in A549, fixation 3 dpi, read-out Hexon, plaque numbers): 0.4 µM
- TI50 (TC50/IC50) (HAdV-B14; HAdV-B14 in A549, 3 dpi, Hexon): 14.22
- EC50 (HAdV-B14; Human adenovirus sp., HAdV-B14 in A549, fixation 3 dpi, read-out Hexon, plaque numbers): 0.84 µM
- TI50 (TC50/IC50) (HAdV-B16; HAdV-B16 in A549, 4 dpi, Hexon): 1.66
- EC50 (HAdV-B16; Human adenovirus sp., HAdV-B16 in A549, fixation 4 dpi, read-out Hexon, plaque numbers): 12.3 µM
- TI50 (TC50/IC50) (HAdV-B3-pIX-FS2A-GFP; HAdV-B3-pIX-FS2A-GFP in A549, 3 dpi, Hexon): 1.50
- EC50 (HAdV-B3-pIX-FS2A-GFP; Human adenovirus sp., A549): 10.2 µM
- TI50 (TC50/IC50) (HAdV-B34; HAdV-B34 in A549, 4 dpi, Hexon): 6.40
- EC50 (HAdV-B34; Human adenovirus sp., HAdV-B34 in A549, fixation 4 dpi, read-out Hexon, plaque numbers): 3.18 µM
- TI50 (TC50/IC50) (HAdV-B7): 0.75
- TI50 (TC50/IC50) (HAdV-B7; listed as nelfinavir): < 1
- EC50 (HAdV-B7; Human adenovirus sp., HAdV-B7 in A549, fixation 4 dpi, read-out Hexon, plaque numbers): 16.9 µM
- TI50 (TC50/IC50) (HAdV-C2-dE3B-GFP-dADP; HAdV-C2-dE3B-GFP-dADP in A549, 4 dpi, GFP): 2.11
- TI50 (TC50/IC50) (HAdV-C2-dE3B-GFP-dADP; HAdV-C2-dE3B-GFP-dADP in A549, 4 dpi, GFP, listed as nelfinavir): 2.1
- TI50 (TC50/IC50) (HAdV-C2-dE3B-GFP-dADP; HAdV-C2-dE3B-GFP-dADP in A549, 5 dpi, GFP): 6.73
- TI50 (TC50/IC50) (HAdV-C2-dE3B-GFP-dADP; HAdV-C2-dE3B-GFP-dADP in A549, 5 dpi, Hexon): 5.20
- EC50 (HAdV-C2-dE3B-GFP-dADP; A549, HAdV-C2-dE3B-GFP-dADP in A549, fixation 4 dpi (96 hpi), read-out GFP): 5.82 µM
- EC50 (HAdV-C2-dE3B-GFP-dADP; A549, HAdV-C2-dE3B-GFP-dADP in A549, fixation 5 dpi, read-out GFP): 2.23 µM
- EC50 (HAdV-C2-dE3B-GFP-dADP; A549, HAdV-C2-dE3B-GFP-dADP in A549, fixation 5 dpi, read-out Hexon): 2.88 µM
- TI50 (TC50/IC50) (HAdV-C5; HAdV-C5 in A549, 3 dpi, VI): 21.01
- EC50 (HAdV-C5; Human adenovirus sp., HAdV-C5 in A549, fixation 3 dpi, read-out VI, plaque numbers): 0.57 µM
- TI50 (TC50/IC50) (HAdV-D30; HAdV-D30 in A549, 5 dpi, Hexon): 3.18
- EC50 (HAdV-D30; Human adenovirus sp., HAdV-D30 in A549, fixation 5 dpi, read-out Hexon, plaque numbers): 4.2 µM
- TI50 (TC50/IC50) (HAdV-D8; HAdV-D8 in A549, 5 dpi, Hexon): 2.36
- EC50 (HAdV-D8; Human adenovirus sp., HAdV-D8 in A549, fixation 5 dpi, read-out Hexon, plaque numbers): 9.09 µM
- EC50 (rec700 (HAdV-C5/2); Human adenovirus sp., A549): 0.07 µM
- TI50 (TC50/IC50) (rec700 (HAdV-C5/2); rec700 (HAdV-C5/2) in A549, 4 dpi, Hexon): 177.41
- effect on GFP or hexon expression (HAdV-C2-dE3B-GFP): no effect
